How the values were obtained:
Conditions in all cases: treatment: drug + dasatinib (fixed dose, not stated); 5 days
ACHN [1] = test: AUC of dose-response viability curve, drug + dasatinib, normalised to DMSO (arbitrary (AUC of normalised viability)); higher = less growth inhibition
Method: (§1)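 Primary HTS combination arm: 8 RCC cell lines treated with 8 doses (up to 10 uM) of each library drug plus a fixed dose of dasatinib (dose not stated) for 5 days; viability read by CellTiter-Glo and normalised to DMSO. GI50 was fitted with XLfit, AUC is the area under the dose-response curve, and minimum viability is the lowest fraction of DMSO viability across doses.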

CAKI-1 [2] = test: as above
Method: as §1

UO-31 [3] = test: as above
Method: as §1

786-O [4] = test: as above
Method: as §1

SN12C [5] = test: as above
Method: as §1

A498 [6] = test: as above
Method: as §1

769-P [7] = test: as above
Method: as §1

TK-10 [8] = test: as above
Method: as §1

ACHN [9] = test: minimum viability across doses, drug + dasatinib, relative to DMSO (fraction); higher = less growth inhibition
Method: as §1

CAKI-1 [10] = test: as above
Method: as §1

UO-31 [11] = test: as above
Method: as §1

786-O [12] = test: as above
Method: as §1

SN12C [13] = test: as above
Method: as §1

A498 [14] = test: as above
Method: as §1

769-P [15] = test: as above
Method: as §1

TK-10 [16] = test: as above
Method: as §1

ACHN [17] = test: GI50 of drug in presence of dasatinib; higher = less potent
Method: as §1

CAKI-1 [18] = test: as above
Method: as §1

UO-31 [19] = test: as above
Method: as §1

786-O [20] = test: as above
Method: as §1

SN12C [21] = test: as above
Method: as §1

A498 [22] = test: as above
Method: as §1

769-P [23] = test: as above
Method: as §1

TK-10 [24] = test: as above
Method: as §1

GI50 of drug (ACHN [17]) | GI50 of drug (786-O [20]) | Compound | AUC of dose-response viability curve (ACHN [1]) | AUC of dose-response viability curve (CAKI-1 [2]) | AUC of dose-response viability curve (UO-31 [3]) | AUC of dose-response viability curve (786-O [4]) | AUC of dose-response viability curve (SN12C [5]) | AUC of dose-response viability curve (A498 [6]) | AUC of dose-response viability curve (769-P [7]) | AUC of dose-response viability curve (TK-10 [8]) | minimum viability across doses (ACHN [9]) | minimum viability across doses (CAKI-1 [10]) | minimum viability across doses (UO-31 [11]) | minimum viability across doses (786-O [12]) | minimum viability across doses (SN12C [13]) | minimum viability across doses (A498 [14]) | minimum viability across doses (769-P [15]) | minimum viability across doses (TK-10 [16]) | GI50 of drug (CAKI-1 [18]) | GI50 of drug (UO-31 [19]) | GI50 of drug (SN12C [21]) | GI50 of drug (A498 [22]) | GI50 of drug (769-P [23]) | GI50 of drug (TK-10 [24])
9070 nM | > 10000 nM | CNC(=O)c1ccc(-c2cnc3ncc(Cc4ccc5ncccc5c4)n3n2)cc1F + Cc1nc(Nc2ncc(C(=O)Nc3c(C)cccc3Cl)s2)cc(N2CCN(CCO)CC2)n1 [dasatinib] | 2.05 | 2.26 | 4.11 | 2.19 | 2.42 | 3.63 | 2.42 | 2.44 | 0.497 | 0.571 | 0.991 | 0.576 | 0.659 | 0.918 | 0.457 | 0.656 | > 10000 nM | > 10 µM | > 10 µM | > 10 µM | 7.57 µM | > 10 µM
27.9 nM | 18.1 nM | COc1cc(OC)c(/C=C/S(=O)(=O)Cc2ccc(OC)c(NCC(=O)[O][Na])c2)c(OC)c1 + Cc1nc(Nc2ncc(C(=O)Nc3c(C)cccc3Cl)s2)cc(N2CCN(CCO)CC2)n1 [dasatinib] | 1.18 | 0.99 | 1.28 | 0.766 | 1.67 | 1.71 | 1.04 | 1.79 | 0.088 | 0.0849 | 0.00998 | 0.0033 | 0.184 | 0.138 | 0.0648 | 0.292 | 15.7 nM | 0.0586 µM | 0.163 µM | 0.0786 µM | 0.0316 µM | 0.148 µM
999 nM | 2090 nM | c1ccc2c(-c3cnn4cc(-c5ccc(N6CCNCC6)cc5)cnc34)ccnc2c1 + Cc1nc(Nc2ncc(C(=O)Nc3c(C)cccc3Cl)s2)cc(N2CCN(CCO)CC2)n1 [dasatinib] | 1.77 | 2.19 | 3.73 | 2.41 | 2.19 | 3.1 | 2.03 | 2.51 | 0.0011 | 0.00191 | 0.00301 | 0.00229 | 0.00173 | 0.00332 | 0.00161 | 0.00532 | 1790 nM | 3.05 µM | 1.58 µM | 3.18 µM | 1.34 µM | 3.06 µM
334 nM | 343 nM | Nc1nc(Nc2ccc(S(N)(=O)=O)cc2)nn1C(=O)c1c(F)cccc1F + Cc1nc(Nc2ncc(C(=O)Nc3c(C)cccc3Cl)s2)cc(N2CCN(CCO)CC2)n1 [dasatinib] | 1.56 | 1.99 | 3.26 | 1.7 | 2.48 | 2.82 | 2.24 | 2.57 | 0.00508 | 0.0394 | 0.00972 | 0.00366 | 0.142 | 0.269 | 0.0371 | 0.623 | 1250 nM | 4.12 µM | 3.69 µM | 4.68 µM | 3.16 µM | > 10 µM
456 nM | 213 nM | CCn1c(-c2nonc2N)nc2c(C#CC(C)(C)O)ncc(OC[C@H]3CCCNC3)c21 + Cc1nc(Nc2ncc(C(=O)Nc3c(C)cccc3Cl)s2)cc(N2CCN(CCO)CC2)n1 [dasatinib] | 1.8 | 2.29 | 2.8 | 1.74 | 2.45 | 3.07 | 2.43 | 2.22 | 0.274 | 0.305 | 0.642 | 0.189 | 0.66 | 0.802 | 0.627 | 0.421 | 2670 nM | > 10 µM | > 10 µM | > 10 µM | > 10 µM | 1.93 µM
4110 nM | 3470 nM | C[C@@H]1CN(CC(=O)Nc2ccc3c(c2)Cc2cccc(-c4cc(=O)cc(N5CCOCC5)o4)c2S3)C[C@H](C)O1 + Cc1nc(Nc2ncc(C(=O)Nc3c(C)cccc3Cl)s2)cc(N2CCN(CCO)CC2)n1 [dasatinib] | 2.04 | 2.15 | 4.18 | 2.51 | 2.48 | 3.33 | 2.37 | 2.69 | 0.381 | 0.165 | 0.213 | 0.282 | 0.511 | 0.771 | 0.373 | 0.589 | 3790 nM | 6.11 µM | > 10 µM | > 10 µM | 5.52 µM | > 10 µM
1800 nM | 763 nM | O=c1cc(N2CCOCC2)oc2c(-c3cccc4c3sc3ccccc34)cccc12 + Cc1nc(Nc2ncc(C(=O)Nc3c(C)cccc3Cl)s2)cc(N2CCN(CCO)CC2)n1 [dasatinib] | 2.09 | 1.96 | 3.36 | 1.89 | 2.38 | 3.4 | 2.36 | 2.52 | 0.139 | 0.112 | 0.0435 | 0.0139 | 0.401 | 0.442 | 0.225 | 0.289 | 847 nM | 2.85 µM | > 10 µM | 8.33 µM | 3.09 µM | 4.63 µM
